The source of these data is PubChem BioAssay (NCI).

Some test systems named below: SF-268 CNS; M14 melanoma; UACC-62 melanoma; KM12 colon; NCI-H226 lung; EKVX NSCLC; PC-3 prostate; SNB-19 CNS; UO-31 renal.
Common to all, as to test: growth of human tumour cells (NCI), 48 h

“And” between values parts separate entries of the source, which are not always exact repeats. Equal entries are not always repeated.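 Dose response: 5 concentrations. Exposure: 48 h. Format: 96-well plates. Endpoint: linear interpolation; highest concentration if not reached. At the GI50, growth is halved. The concentration for full growth arrest is given as TGI.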 Bounds are passed on as bounds.

`COc1ccc(C2SCC(=O)N2NC(=O)Nc2c(C)nc3ccccn23)cc1` (stereo unspecified): the GI50 in the test on SF-268 CNS was 39.7 µM; in the test with M14 melanoma, more than 100 µM; in the test on UACC-62 melanoma, 39.6 µM; in the test on KM12 colon, more than 100 µM; in the test with NCI-H226 lung it was 42.8 µM; in the test on EKVX NSCLC it was 63 µM. The GI50 with PC-3 prostate is 77.2 µM; in the test on SNB-19 CNS, 21.7 µM; in the test with UO-31 renal, 32.7 µM. The TGI in the test on SF-268 CNS, in the test on M14 melanoma, in the test on UACC-62 melanoma, in the test on KM12 colon, with NCI-H226 lung and in the test on EKVX NSCLC was more than 100 µM each time. In addition, the TGI in the test with PC-3 prostate was more than 100 µM; in the test on SNB-19 CNS, 47.3 µM; in the test with UO-31 renal, more than 100 µM.
For the molecule `CO[C@H]1C=C[C@@]23c4cc5c(cc4CO[C@]2(O)CN(C)[C@H]3C1)OCO5`, the TGI in the test on SF-268 CNS, in the test with M14 melanoma, in the test with UACC-62 melanoma, in the test with KM12 colon, in the test on NCI-H226 lung and in the test with EKVX NSCLC was more than 100 µM each time. In addition, the TGI with PC-3 prostate, in the test on SNB-19 CNS and in the test on UO-31 renal was more than 100 µM in each case.
As for `OC/C=C(\I)CCCOCOCc1ccccc1`, the TGI in the test with SF-268 CNS, with M14 melanoma, with UACC-62 melanoma, in the test with KM12 colon, with NCI-H226 lung and with EKVX NSCLC was more than 100 µM throughout. In addition, the TGI in the test on SNB-19 CNS and in the test on UO-31 renal was more than 100 µM each time.
Regarding `CC1=N/C(=C\c2cccc([N+](=O)[O-])c2)C(=O)O1`, the TGI with SF-268 CNS, in the test on M14 melanoma, with UACC-62 melanoma, in the test on KM12 colon, with EKVX NSCLC and in the test with SNB-19 CNS was more than 100 µM each time. This molecule showed a TGI with UO-31 renal of more than 100 µM.
As to `C/C=C1/C(=C/c2[nH]c(/C=c3\[nH]/c(=C/C4=NC(=O)C(CC)=C4C)c(C)c3CCC(=O)O)c(CCC(=O)O)c2C)NC(=O)C1C` (stereo unspecified), the GI50 in the test with SF-268 CNS, in the test on M14 melanoma, with UACC-62 melanoma, in the test with NCI-H226 lung, in the test on EKVX NSCLC and in the test on SNB-19 CNS was more than 150 µg/mL each time. The GI50 in the test on UO-31 renal was more than 150 µg/mL. The TGI in the test with SF-268 CNS, with M14 melanoma, in the test on UACC-62 melanoma, in the test with NCI-H226 lung, with EKVX NSCLC and with SNB-19 CNS was more than 150 µg/mL each time. Also, the TGI in the test on UO-31 renal is more than 150 µg/mL.
As to `N#CCC(=O)NC1C2CC3CC(C2)CC1C3` (stereo unspecified), the TGI came out at 35.7 µM with SF-268 CNS; 41.6 µM in the test on M14 melanoma; 28.7 µM in the test on UACC-62 melanoma; 32.5 µM in the test with KM12 colon; 48.5 µM with NCI-H226 lung; 33.9 µM in the test on EKVX NSCLC. In addition, the figures for the TGI in the test with SNB-19 CNS and in the test on UO-31 renal were 32.5 µM and more than 100 µM, respectively.
On to `CCc1ccc(Nc2ccc([N+](=O)[O-])cc2[N+](=O)[O-])cc1`, for which the TGI with M14 melanoma is more than 100 µM; in the test on UACC-62 melanoma it was more than 100 µM; in the test with KM12 colon, more than 100 µM; in the test on NCI-H226 lung, 99.8 µM; in the test on EKVX NSCLC, more than 100 µM; in the test with UO-31 renal, more than 100 µM.
Regarding `CN(C)C(c1ccccc1)C(O)c1ccccc1` (stereo unspecified), the TGI in the test with SF-268 CNS, with M14 melanoma, in the test with UACC-62 melanoma, with KM12 colon, in the test with NCI-H226 lung and in the test with EKVX NSCLC was more than 100 µM throughout. Moreover, the TGI in the test on SNB-19 CNS and with UO-31 renal was more than 100 µM each time.
Consider `CC(C)CCCC(=O)CCCCCCC(=O)CCN(O)C(=O)C(N)CO` (stereo unspecified), for which the TGI was 60 µM in the test on SF-268 CNS; 61.5 µM with M14 melanoma; 34.6 µM with UACC-62 melanoma; 35.9 µM in the test with KM12 colon; 35.6 µM in the test with NCI-H226 lung; 27.5 µM with EKVX NSCLC. The TGI came to 28.2 µM in the test with PC-3 prostate, 48.6 µM with SNB-19 CNS and 26.7 µM in the test on UO-31 renal.
Take `CCCCOC(=O)NC(=O)c1cn(C2CCCCC2)c(=O)[nH]c1=O`: the TGI is more than 100 µM in the test with SF-268 CNS; more than 100 µM in the test on M14 melanoma; more than 100 µM with UACC-62 melanoma; more than 100 µM with KM12 colon; 46.3 µM with NCI-H226 lung; more than 100 µM in the test with EKVX NSCLC. For the same molecule, the TGI worked out at 69.3 µM in the test on SNB-19 CNS and 46.2 µM in the test with UO-31 renal.
As to `COc1ccc(/C=C\c2cc(OC)c(OC)c(OC)c2)cc1OC(=O)NCCN(C)C`, the GI50 with SF-268 CNS is 0.0336 µM; in the test on KM12 colon it was less than 0.0001 µM. Besides, the TGI was more than 35 µM in the test with M14 melanoma; more than 25.7 µM with UACC-62 melanoma; 0.0464 µM in the test on NCI-H226 lung; more than 58.7 µM with EKVX NSCLC; more than 100 µM in the test with SNB-19 CNS; more than 63.2 µM in the test with UO-31 renal.
Turning to `CCOc1ccc2c(c1)[n+]([O-])c(-c1nc3ccccc3s1)c(N)[n+]2[O-]`, the TGI in the test on SF-268 CNS, with M14 melanoma, in the test with UACC-62 melanoma, with KM12 colon, with NCI-H226 lung and in the test on EKVX NSCLC was more than 100 µM throughout. Also, the TGI in the test with SNB-19 CNS was more than 100 µM; in the test with UO-31 renal, 96.3 µM.
Turning to `NCCCn1c2c(c3ccc([N+](=O)[O-])cc3c1=O)C(=O)c1cc(Br)ccc1-2`, the GI50 is 0.00358 µM in the test with SF-268 CNS; 0.185 µM in the test with M14 melanoma; 0.0195 µM with UACC-62 melanoma; 0.0834 µM and 0.0185 µM with KM12 colon; 0.0451 µM and 0.011 µM with NCI-H226 lung; 0.0757 µM and 0.0501 µM with EKVX NSCLC. In addition, the GI50 is 0.101 µM and 0.0286 µM with PC-3 prostate; 0.0379 µM in the test on SNB-19 CNS; 0.0575 µM in the test with UO-31 renal. Moreover, the TGI in the test with SF-268 CNS was 0.142 µM; with M14 melanoma it was 0.435 µM and 0.165 µM; with UACC-62 melanoma, 0.0488 µM and 0.0256 µM; in the test on KM12 colon, 0.353 µM and 0.191 µM; in the test on NCI-H226 lung, 0.326 µM and 0.0684 µM; in the test with EKVX NSCLC, 0.223 µM. The TGI with PC-3 prostate was 0.412 µM and 0.312 µM; in the test on UO-31 renal, 0.184 µM.
Regarding `COc1ccc(/C(Cl)=C(\C=O)c2ccc([N+](=O)[O-])cc2)cc1`, the TGI in the test with SF-268 CNS was 92.3 µM; with M14 melanoma, more than 74.6 µM; in the test on UACC-62 melanoma, 33.1 µM; in the test with KM12 colon, 11.4 µM; with NCI-H226 lung it was 46.9 µM; in the test on EKVX NSCLC, more than 68.8 µM. The TGI was more than 31.6 µM in the test with SNB-19 CNS and 56.2 µM with UO-31 renal.
